No end group written: not given here.

Experiment [1] relates to T lymphocytes from a patient suffering from T-cell acute lymphoblastic leukemia (T-ALL). The format is cell-based, human. The note with it: FIG. 7, 4 H incubation. Here is the method:
(§1) FIG. 7: Activity of the A1WT peptide on cells of lymphocytic, lymphoid, gastric, colonic or renal origin The cells are prepared and placed in culture (see Materials and Methods) and then incubated for 4 H with the A1WT or A1 YALA peptide. The percentage cell survival corresponds to the percentage of cells labeled neither with annexin nor with propidium iodide, evaluated by flow cytometry. The names of the pathological conditions from which the patients from whom the samples are taken are suffering are indicated under the figure. The control T (L.T.) and B (L.B.) lymphocytes are taken from patients suffering from a disease not related to a lymphocytic pathological condition (hemochromatosis).
(§2) The cells were cultured in a culture medium composed either of RPMI 1640 (B lymphocytes) or of DMEM (COS7, HCT116, HGT1, 293, HeLa) containing 10% of FCS (fetal calf serum, 1% of penicillin-streptomycin and 1% of glutamine, Gibco BRL). The cells are distributed in a 24-well plate and cultured at 37° C. in a humid atmosphere under 5% CO2.
(§3) 400 μl of cell suspension (1×10^6 cells/ml) per well were treated for 4 h or 24 h with various concentrations of peptides. The test for activity of the peptides in the presence of emetine (FIG. 6) was carried out by preincubating the cells with 100 μM of emetine for one hour before the addition of peptide.
(§4) After the cells have been washed with PBS, they were analyzed using the Annexin V-FITC IP system according to the supplier's recommendations (Beckman Coulter).
(§5) The cells of lymphoid origin all originated from samples taken from patients suffering from various pathological conditions classified according to the seat of the tumor proliferation. This proliferation takes place either in the bone marrow, for CLL, B-cell prolymphocytic leukemia and T-cell acute lymphoblastic leukemia (T-ALL); or in the lymph nodes for mantle cell lymphoma and marginal zone lymphoma. A classification can also be carried out according to the cell type affected: B lymphocytes (CLL, B-cell prolymphocytic leukemia, mantle cell lymphoma and marginal zone lymphoma) or T lymphocytes (T-ALL).

The subject of experiment [2] is mantle cell lymphoma cells. The format is cell-based, human. The conditions noted are these: 4 h, 40 μM. The method, then:
as §1, §2, §3, §4, §5

Experiment [3] relates to marginal zone lymphoma (MZL) cells. It is filed as cell-based, human. The conditions noted are these: 4 h, 40 μM. Here is the method: as §1, §2, §3, §4, §5
Experiment [4] relates to B-cell prolymphocytic leukemia cells. It is filed as cell-based, human. The note with it: 24 h. The method, then:
as §1, §2, §3, §4, §5

Experiment [5] has as its system acute myeloid leukemia (AML) cells. The format is cell-based, human. The conditions noted are these: 4 h, 40 μM. Here is the method: as §1, §2
400 μl of cell suspension (1×10^6 cells/ml) per well were treated for 4 h or 24 h with various concentrations of peptides. […]
After the cells have been washed with PBS, they were analyzed using the Annexin V-FITC IP system according to the supplier's recommendations (Beckman Coulter). […]

The test system of experiment [6] is HeLa cells (cervical cancer). Put plainly: Cell survival of HeLa cells, Syto 13/propidium iodide fluorescence microscopy. It is filed as cell-based. The conditions noted are these: one hour incubation, various concentrations; FIG. 10. The method, then:
(§6) The cells cultured in glass-bottomed multiwell plates are incubated for one hour with the A1WT or A1 YALA peptide at the concentrations indicated on the figure. The percentage cell survival is obtained by calculating the ratio between the cells stained with Syto 13 and those stained with propidium iodide (see Materials and Methods).
(§7) The analyses were carried out on a Zeiss Observer Z1 epifluorescence microscope. The cells are cultured in a glass-bottomed multiwell plate, propidium iodide and Syto13 (Invitrogen) are added to the medium at a concentration of 1 mg/ml and 5 μM, respectively. The Syto 13 binds to the DNA in the nuclei of the cells which then emit a green fluorescence. When the membrane permeability is modified during the cell death process, the propidium iodide penetrates the cell and causes the appearance of a red fluorescence when it binds to the DNA of the cell nuclei. The ratio between the number of nuclei emitting a green fluorescence and the number of nuclei emitting a red fluorescence represents the fraction of live cells expressed as percentage cell survival in the figures.

For experiment [7], the system named is 293 cells (human embryo kidney cells transformed with adenovirus 5). Put plainly: Cell survival of 293 cells, Syto 13/propidium iodide fluorescence microscopy. The conditions noted are these: one hour incubation, various concentrations; FIG. 10. It is filed as cell-based. The method, then:
as §6, §7

In experiment [8] the test system is control T lymphocytes (patients suffering from hemochromatosis). In words: Cell survival of control T lymphocytes, annexin/propidium iodide flow cytometry. The format is cell-based, human. The method, then: as §1
The control B lymphocytes and T lymphocytes originate from peripheral blood samples from patients suffering from hemochromatosis, provided by the CTS transfusion center in Brest. The B and T lymphocytes were isolated using the Rosett-Sep kit (Stemcell Technologies) according to the supplier's recommendations.
as §2, §3, §4
Background: Flow cytometry measures light scatter and fluorescence of single cells or particles in a stream.

“RRKYGRDFLLRFRYIRS [A1 WT IRS, RRKYGRDFLLRFRYIRS]”: the entries for the “effect on cell survival” value in experiment [1], in experiment [6] and in experiment [7] were “as great as for the CLL cells”, “high sensitivity” and “dose-dependent effect”, respectively. The survival rate entry is “approximately 30%” in experiment [2]; “approximately 30%” in experiment [3]; 38% in experiment [5]; 38% in experiment [8] (after 4 H of incubation with 40 μM, FIG. 7). For the same sequence, the cell survival in experiment [4] is on record as 20%. Also, in experiment [8] (40 μM peptide, 4 hours of culture, cells not labeled with annexin or propidium iodide), the “cell effect LT 40 (survival)” value is listed as “+ (+: survival <25%)”.

Values taken from patent US9745357B2, “Peptides used for treating cancers and, in particular, chronic lymphoid leukaemia” (Centre National de la Recherche Scientifique, priority 2009, dated 2017).
